pEC50, pKd: −log10 of the molar value. Like-named read-outs stand apart in the source and are kept apart here.
Key:
HeLa Kyoto cells = experiment: Chromosome misalignment during metaphase; type: cell-based, human; settings: for misaligned chromosomes: HeLa Kyoto cells
Description: HeLa Kyoto cells were cultured in high-glucose DMEM with GlutaMAX (Life Technologies) media supplemented with 10% fetal calf serum (FCS) in a humidified 5% CO2 incubator at 37° C. For plasmid transfections, cells were seeded at 80-90% confluence. 4 μg of plasmid DNA in 100 μl OptiMEM and 4 μl of Lipofectamine 2000 (Life Technologies) in 100 μl OptiMEM were incubated in parallel for 5 minutes, mixed for 20 minutes and added to each well. All Aurora A clones were constructed using full-length Aurora A as a template with appropriate PCR primer pairs. […] GFP-Aurora AR137A and GFP-Aurora AW277A were engineered using a site directed mutagenesis kit (Agilent Technologies, no. 210515) with appropriate primers. For determining the mitotic index and the chromosome misalignment phenotype, cells were incubated with various concentrations of compounds for 20 h before analysis. Cells were likewise treated with 0.25 μM MLN8237 (Selleckchem, no. S1133) or 5 μM ZM447439 (Selleckchem, no. S1103). For flow cytometry analysis, 50 nM […] and 2.5 μM ZM447439 were used. For rescue experiments, HeLa Kyoto cells were first transfected with GFP-Aurora A, GFP-Aurora AR137A or GFP-Aurora AW277A for 20 h, followed by incubation with 9 for another 20 h before cells were fixed with cold methanol and stained. To assess the impact of compound 9 on cell cycle progression, DNA content was analyzed after propidium iodide staining using FACS (BD Accuri C6 flow cytometer).
For immunofluorescence, cells were fixed in cold methanol, washed in PBT (PBS supplemented with 0.05% Tween-20) and stained with the following primary antibodies: 1:200 rabbit anti-pT288 (Cell Signaling, C39D8), 1:200 rabbit anti-pH3S10 (Cell Signaling, D2C8), 1:500 mouse anti-α-tubulin (Transduction Laboratories, 612709), 1:300 mouse anti-GFP (MAB3580, Millipore), 1:200 anti-TPX2 (Santa Cruz Biotechnology, sc-32863), anti-Aurora A (Invitrogen, 458900). Secondary antibodies were anti-mouse conjugated to Alexa488 or Alexa568, as well as anti-rabbit conjugated to Alexa488 or Alexa568, all used at 1:500 (Invitrogen). Confocal images were acquired on a Zeiss LSM 710 confocal microscope equipped with a Axiocam MRm (B/VVW) CCD camera using a 63×NA 1.0 oil objective and processed in ImageJ and Adobe Photoshop, maintaining relative image intensities within a series.

Aurora A = biological target: T1, Aurora A (Homo sapiens, UniProt O14965); experiment: Active site directed binding competition assay, KD (DiscoveRx); settings: free Aurora A
T1 sequence (O14965 1-403): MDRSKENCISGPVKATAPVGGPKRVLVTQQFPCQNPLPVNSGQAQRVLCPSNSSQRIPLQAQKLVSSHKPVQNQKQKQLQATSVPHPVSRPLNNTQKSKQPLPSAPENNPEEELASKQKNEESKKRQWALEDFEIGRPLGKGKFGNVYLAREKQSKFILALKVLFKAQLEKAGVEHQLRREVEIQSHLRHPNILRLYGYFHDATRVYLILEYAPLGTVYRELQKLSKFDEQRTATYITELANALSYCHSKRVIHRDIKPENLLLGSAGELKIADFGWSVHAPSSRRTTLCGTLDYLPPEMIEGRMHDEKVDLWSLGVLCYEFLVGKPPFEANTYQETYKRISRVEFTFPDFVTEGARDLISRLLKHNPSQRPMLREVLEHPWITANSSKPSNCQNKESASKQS
Description: (§1) The kinome profiling of compound 9 was conducted by DiscoveRx. In total, 456 kinases were assayed (scanMAX). For most assays, kinase-tagged T7 phage strains were grown in parallel in 24-well blocks in an E. coli host derived from the BL21 strain. E. coli were grown to log-phase and infected with T7 phage from a frozen stock (multiplicity of infection=0.4) and incubated with shaking at 32° C. until lysis (90-150 minutes). The lysates were centrifuged (6000 g) and filtered (0.2 μm) to remove cell debris. The remaining kinases were produced in HEK-293 cells and subsequently tagged with DNA for qPCR detection. […] The liganded beads were blocked with excess biotin and washed with blocking buffer (SeaBlock (Pierce), 1% BSA, 0.05% Tween 20, 1 mM DTT) to remove unbound ligand and to reduce non-specific phage binding. […] Test compounds were prepared as 40× stocks in 100% DMSO and directly diluted into the assay. All reactions were performed in polypropylene 384-well plates in a final volume of 0.04 ml. […] The kinase concentration in the eluates was measured by qPCR. […] was screened at 1 μM, and results for primary screen binding interactions were reported as % of control (PoC). PoC=(test compound signal−positive control signal)/(DMSO signal−positive control signal). PoC values at 1 μM 9 for all kinases were visualized using TREEspot (DiscoveRx). […] KD values were determined with a standard dose-response curve using the Hill equation.

Aurora C = biological target: T2, Aurora C (Homo sapiens, UniProt Q9UQB9); experiment: as above
T2 construct: purchased DiscoveRx scanMAX
T2 sequence (Q9UQB9 1-309): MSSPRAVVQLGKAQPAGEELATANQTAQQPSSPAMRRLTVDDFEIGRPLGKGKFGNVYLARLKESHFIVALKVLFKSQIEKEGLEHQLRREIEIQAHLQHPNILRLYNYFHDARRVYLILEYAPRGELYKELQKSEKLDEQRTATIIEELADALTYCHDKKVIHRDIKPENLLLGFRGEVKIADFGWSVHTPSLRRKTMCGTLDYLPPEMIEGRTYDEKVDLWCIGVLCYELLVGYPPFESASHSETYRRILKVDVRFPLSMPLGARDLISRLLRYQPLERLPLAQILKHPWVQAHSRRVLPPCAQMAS
Description: as §1

[1] = biological target: T3, Aurora B (without INCENP) (Homo sapiens, UniProt Q96GD4); experiment: as above
T3 construct: purchased DiscoveRx scanMAX
Description: as §1

T3 sequence (Q96GD4 whole entry): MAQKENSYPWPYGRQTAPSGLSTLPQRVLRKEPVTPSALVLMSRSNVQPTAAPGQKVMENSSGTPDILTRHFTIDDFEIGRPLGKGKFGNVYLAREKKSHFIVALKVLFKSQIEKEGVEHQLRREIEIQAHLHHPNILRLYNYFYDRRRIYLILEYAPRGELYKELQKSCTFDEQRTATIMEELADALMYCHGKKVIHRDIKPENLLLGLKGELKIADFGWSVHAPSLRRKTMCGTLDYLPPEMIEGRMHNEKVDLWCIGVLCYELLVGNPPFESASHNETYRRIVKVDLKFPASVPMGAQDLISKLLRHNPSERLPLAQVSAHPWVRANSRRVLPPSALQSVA

CCc1ccc(N=C2SC(=Cc3ccnc(Nc4ccc(C(=O)O)cn4)c3)C(=O)N2C)cc1 [Compound 9]
misaligned chromosomes (HeLa Kyoto cells; 4 μM): ~20% | misaligned chromosomes (HeLa Kyoto cells; 10 μM): ~80% | misaligned chromosomes (HeLa Kyoto cells; 25 μM): ~85% | pEC50 (HeLa Kyoto cells; cellular activity as summarised in text, read-out: cellular activity EC50): < 6.00 | pEC50 (HeLa Kyoto cells; read-out: phenotypic EC50, defective chromosome alignment during metaphase): 5.22 | pKd (Aurora A): 8.30 | pKd (Aurora C): 7.96 | pKd [1]: 8.00
